Experimental data: patent publication US9206130B2, “Quinoline derivatives as AXL kinase inhibitors” (Max-Planck-Gesellschaft zur Förderung der Wissenschaften …, priority 2008, dated 2015)
Structures can show the parent of a compound that is named as a salt.

What was measured:
[1] = target: T1, wild type AXL (wtAXL) receptor tyrosine kinase (Homo sapiens, UniProt P30530); test: NIH-3T3-AXL cellular tyrosine kinase assay (inhibition of AXL phosphorylation); format: cell-based; conditions: AXL phosphorylation in NIH-3T3-AXL (clone 22) cells, serum-depleted, 2 h with compound, immunoprecipitation / anti-phosphotyrosine blot
T1 construct: WtAXL cDNA was cloned into vector pLXSN(ESK) and transfected into Phoenix E packaging cells; expressed in transfected cells; host or cells: NIH3T3 N7 mouse fibroblasts, retrovirally infected (clone 22)
T1 sequence (P30530 26-894): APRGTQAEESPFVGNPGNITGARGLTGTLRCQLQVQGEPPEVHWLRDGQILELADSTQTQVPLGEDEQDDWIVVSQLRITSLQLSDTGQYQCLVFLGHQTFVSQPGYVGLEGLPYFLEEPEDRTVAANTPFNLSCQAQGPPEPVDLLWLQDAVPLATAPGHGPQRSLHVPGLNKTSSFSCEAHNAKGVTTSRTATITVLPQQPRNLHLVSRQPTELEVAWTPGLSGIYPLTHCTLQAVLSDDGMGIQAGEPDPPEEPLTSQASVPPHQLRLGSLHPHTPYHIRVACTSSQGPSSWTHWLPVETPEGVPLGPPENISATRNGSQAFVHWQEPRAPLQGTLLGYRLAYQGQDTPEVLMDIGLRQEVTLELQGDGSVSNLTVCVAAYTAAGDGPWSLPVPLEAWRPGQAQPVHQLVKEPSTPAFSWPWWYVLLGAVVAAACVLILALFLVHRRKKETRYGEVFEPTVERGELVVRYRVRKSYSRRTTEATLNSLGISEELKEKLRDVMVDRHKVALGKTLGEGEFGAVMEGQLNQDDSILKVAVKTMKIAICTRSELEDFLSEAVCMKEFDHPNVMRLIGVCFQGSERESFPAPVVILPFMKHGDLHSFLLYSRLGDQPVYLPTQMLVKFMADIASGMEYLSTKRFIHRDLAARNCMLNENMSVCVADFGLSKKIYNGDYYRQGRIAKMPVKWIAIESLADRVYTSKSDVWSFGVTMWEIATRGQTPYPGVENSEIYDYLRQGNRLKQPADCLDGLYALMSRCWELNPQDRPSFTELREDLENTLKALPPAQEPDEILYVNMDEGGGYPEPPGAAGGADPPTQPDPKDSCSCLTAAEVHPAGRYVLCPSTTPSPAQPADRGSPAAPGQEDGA
Description: 3) Inhibitory Activity of Compounds on Axl Phosphorylation in NIH-3T3-AXL Cellular Tyrosine Kinase Assay
The viral supernatant was collected and used to infect target cells NIH3T3 N7. Monoclonal NIH3T3-AXL cell lines stably expressing wtAXL were generated by selecting retrovirally infected cells in medium containing puromycin (2 μg/ml) and subsequent clonal separation.
NIH-3T3-AXL Cellular Kinase Assay
Serial dilutions of compounds were added, and the cells were further incubated or 2 h. […] The clarified cell lysate (10 min at 13000 rpm at 4° C.) were used for immunoprecipitation. Equal amounts of protein were mixed with 2 μg anti-AXL polyclonal antibody (homemade) and 20 μl Protein A sepharose beads, and rotated for 6 hr at 4° C. After immunoprecipitation, the beads were washed three times with 1×HNTG (50 mM HEPES (pH 7.5), 150 mM NaCl, 10% Glycerol, 0.2% Triton X-100). The final pellet was suspended in 20 μl 2× Laemmli buffer, and boiled for 5 min at 100° C. […] The membrane was then incubated with anti-phosphotyrosine antibody (4G10) overnight at 4° C. followed by washing with 1×TBST buffer three times. After incubating membrane with HRP-conjugated anti-mouse secondary antibody for 1 hour at room temperature followed by washing with 1×TBST buffer three times, the proteins were visualized by ECL.

## COc1cc2nccc(Oc3ccc(NS(=O)(=O)c4cccc(C#N)c4)c(F)c3)c2cc1OC [Example A1, 3-Cyano-N-[4-(6,7-dimethoxy-quinolin-4-yloxy)-2-fluoro-phenyl]-benzenesulfonamide]
other
  melting point: 223 to 224 °C
[1]
  IC50: 4500 nM

## COc1cc2nccc(Oc3ccc(NS(=O)(=O)c4ccc(F)c(F)c4)c(F)c3)c2cc1OC [Example A3, N-[4-(6,7-Dimethoxy-quinolin-4-yloxy)-2-fluoro-phenyl]-3,4-difluoro-benzenesulfonamide]
other
  melting point: 217 to 219 °C
[1]
  IC50: 3400 nM

## COc1cc2nccc(Oc3ccc(NS(=O)(=O)c4cccs4)c(F)c3)c2cc1OC [Example A4]
other
  melting point: 214 to 216 °C
[1]
  IC50: 6000 nM

## COc1cc2nccc(Oc3ccc(NS(=O)(=O)c4cc(Cl)cc(Cl)c4O)c(F)c3)c2cc1OC [Example A5, 3,5-Dichloro-N-[4-(6,7-dimethoxy-quinolin-4-yloxy)-2-fluoro-phenyl]-2-hydroxy-benzenesulfonamide]
other
  melting point: 232 to 234 °C
[1]
  IC50: 500 nM

## COc1cc2nccc(Oc3ccc(NS(=O)(=O)c4ccc(C)c(F)c4)c(F)c3)c2cc1OC [Example A6, N-[4-(6,7-Dimethoxy-quinolin-4-yloxy)-2-fluoro-phenyl]-3-fluoro-4-methyl-benzenesulfonamide]
other
  melting point: 211 to 212 °C
[1]
  IC50: 4300 nM

## COc1cc2nccc(Oc3ccc(NS(=O)(=O)c4sc(NC(C)=O)cc4C)c(F)c3)c2cc1OC [Example A7, N-{5-[4-(6,7-Dimethoxy-quinolin-4-yloxy)-2-fluoro-phenylsulfamoyl]-4-methyl-thiophen-2-yl}-acetamide]
other
  melting point: 133 to 135 °C
[1]
  IC50: > 10000 nM

## COC(=O)c1sccc1S(=O)(=O)Nc1ccc(Oc2ccnc3cc(OC)c(OC)cc23)cc1F [Example A9, 3-[4-(6,7-Dimethoxy-quinolin-4-yloxy)-2-fluoro-phenylsulfamoyl]-thiophene-2-carboxylic acid methyl ester]
other
  melting point: 189 to 190 °C
[1]
  IC50: 3700 nM

## COc1cc2nccc(Oc3ccc(NS(=O)(=O)c4ccc(Br)c(F)c4)c(F)c3)c2cc1OC [Example A11, 4-Bromo-N-[4-(6,7-dimethoxy-quinolin-4-yloxy)-2-fluoro-phenyl]-3-fluoro-benzenesulfonamide]
other
  melting point: 209 to 211 °C
[1]
  IC50: 2260 nM

## COc1cc2nccc(Oc3ccc(NS(=O)(=O)c4ccc(F)c(Cl)c4)c(F)c3)c2cc1OC [Example A12, 3-Chloro-N-[4-(6,7-dimethoxy-quinolin-4-yloxy)-2-fluoro-phenyl]-4-fluoro-benzenesulfonamide]
other
  melting point: 208 to 210 °C
[1]
  IC50: 1260 nM

## COc1cc2nccc(Oc3ccc(NS(=O)(=O)c4ccc(Cl)cc4F)c(F)c3)c2cc1OC [Example A13, 4-Chloro-N-[4-(6,7-dimethoxy-quinolin-4-yloxy)-2-fluoro-phenyl]-2-fluoro-benzenesulfonamide]
other
  melting point: 218 to 219 °C
[1]
  IC50: 2900 nM

## COc1cc2nccc(Oc3ccc(NS(=O)(=O)c4c(F)cccc4F)c(F)c3)c2cc1OC [Example A14, N-[4-(6,7-Dimethoxy-quinolin-4-yloxy)-2-fluoro-phenyl]-2,6-difluoro-benzenesulfonamide]
other
  melting point: 223 to 225 °C
[1]
  IC50: 1400 nM

## COc1cc2nccc(Oc3ccc(NS(=O)(=O)c4ccc(Cl)cc4F)cc3OC)c2cc1OC [Example A141, 4-Chloro-N-[4-(6,7-dimethoxy-quinolin-4-yloxy)-3-methoxy-phenyl]-2-fluoro-benzenesulfonamide]
[1]
  IC50: > 10000 nM

## COc1cc2c(Oc3ccc(NS(=O)(=O)c4cccc5ccccc45)cc3F)ccnc2cc1OCCCN [Example D02, Naphthalene-1-sulfonic acid {4-[7-(3-amino-propoxy)-6-methoxy-quinolin-4-yloxy]-3-fluoro-phenyl}-amide hydrochloride]
[1]
  IC50: 695 nM

## COc1cc2c(Oc3ccc(NS(=O)(=O)c4cccc(-c5ccccc5)c4)cc3F)ccnc2cc1OCCCN [Example D03, Biphenyl-3-sulfonic acid {4-[7-(3-amino-propoxy)-6-methoxy-quinolin-4-yloxy]-3-fluoro-phenyl}-amide hydrochloride]
[1]
  IC50: 837 nM

## COc1cc2c(Oc3ccc(NS(=O)(=O)c4ccccc4OC(F)(F)F)cc3F)ccnc2cc1OCCCN [Example D15, N-{4-[7-(3-Amino-propoxy)-6-methoxy-quinolin-4-yloxy]-3-fluoro-phenyl}-2-trifluoromethoxy-benzenesulfonamide hydrochloride]
[1]
  IC50: 364 nM

## COc1cc2c(Oc3ccc(NS(=O)(=O)c4ccccc4OC(F)(F)F)cc3F)ccnc2cc1OCCCN1CCOCC1 [Example D40, N-{3-Fluoro-4-[6-methoxy-7-(3-morpholin-4-yl-propoxy)-quinolin-4-yloxy]-phenyl}-2-trifluoromethoxy-benzenesulfonamide]
other
  melting point: 183 to 184 °C

## COc1cc2c(Oc3ccc(NS(=O)(=O)c4cc(F)ccc4F)cc3F)ccnc2cc1OCCCN1CCOCC1 [Example D41, 2,5-Difluoro-N-{3-fluoro-4-[6-methoxy-7-(3-morpholin-4-yl-propoxy)-quinolin-4-yloxy]-phenyl}-benzenesulfonamide]
other
  melting point: 192 to 195 °C

## COc1cc2c(Oc3ccc(NS(=O)(=O)c4cccc(-c5ccccc5)c4)cc3F)ccnc2cc1OCCCN1CCOCC1 [Example D42, Biphenyl-3-sulfonic acid {3-fluoro-4-[6-methoxy-7-(3-morpholin-4-yl-propoxy)-quinolin-4-yloxy]-phenyl}-amide]
other
  melting point: 210 to 212 °C

## COc1cc2c(Oc3ccc(NS(=O)(=O)c4ccc(Cl)cc4F)cc3F)ccnc2cc1OCCCN1CCOCC1 [Example D43, 4-Chloro-2-fluoro-N-{3-fluoro-4-[6-methoxy-7-(3-morpholin-4-yl-propoxy)-quinolin-4-yloxy]-phenyl}-benzenesulfonamide]
other
  melting point: 200 to 203 °C

## COc1cc(S(=O)(=O)Nc2ccc(Oc3ccnc4cc(OCCCN5CCOCC5)c(OC)cc34)c(F)c2)ccc1F [Example D44, 4-Fluoro-N-{3-fluoro-4-[6-methoxy-7-(3-morpholin-4-yl-propoxy)-quinolin-4-yloxy]-phenyl}-3-methoxy-benzenesulfonamide]
other
  melting point: 90 to 93 °C

## COc1cc2c(Oc3ccc(NS(=O)(=O)c4ccccc4F)cc3F)ccnc2cc1OCCCN1CCOCC1 [Example D45, 2-Fluoro-N-{3-fluoro-4-[6-methoxy-7-(3-morpholin-4-yl-propoxy)-quinolin-4-yloxy]-phenyl}-benzenesulfonamide]
other
  melting point: 179 to 181 °C

## COc1cc2c(Oc3ccc(NS(=O)(=O)c4ccccc4[N+](=O)[O-])cc3F)ccnc2cc1OCCCN1CCOCC1 [Example D46, N-{3-Fluoro-4-[6-methoxy-7-(3-morpholin-4-yl-propoxy)-quinolin-4-yloxy]-phenyl}-2-nitro-benzenesulfonamide]
other
  melting point: 166 to 168 °C

## COc1cc2c(Oc3ccc(NS(=O)(=O)c4c(Cl)cccc4Cl)cc3F)ccnc2cc1OCCCN1CCOCC1 [Example D47, 2,6-Dichloro-N-{3-fluoro-4-[6-methoxy-7-(3-morpholin-4-yl-propoxy)-quinolin-4-yloxy]-phenyl}-benzenesulfonamide]
other
  melting point: 194 to 196 °C

## COc1cc2c(Oc3ccc(NS(=O)(=O)c4cccc5ccccc45)cc3F)ccnc2cc1OCCCN1CCOCC1 [Example D48, Naphthalene-1-sulfonic acid {3-fluoro-4-[6-methoxy-7-(3-morpholin-4-yl-propoxy)-quinolin-4-yloxy]-phenyl}-amide]
other
  melting point: 108 to 111 °C

## COc1cc2c(Oc3ccc(NS(=O)(=O)c4ccccc4Br)cc3F)ccnc2cc1OCCCN1CCOCC1 [Example D49, 2-Bromo-N-{3-fluoro-4-[6-methoxy-7-(3-morpholin-4-yl-propoxy)-quinolin-4-yloxy]-phenyl}-benzenesulfonamide]
other
  melting point: 185 to 188 °C
